Results reported in patent US8530665B2 (Eli Lilly and Company, priority 2010, dated 2013).

Experiments:
[1] = test system: FGF9 induced ERK phosphorylation in Human RT112 bladder carcinoma cells; assay: FGF9 induced p-ERK with BSA in RT112 cells; conditions: RT-112, read-out: IC50 FGF9 induced p-ERK
Protocol: FGF9 Induced p-ERK with BSA
This yielded a 10 point dose-response curve ranging from 10-0.005 μM in 1% DMSO. The incubation is continued for 1 hour at 37° C. […] Cells are fixed by the addition of 30 μL of a 25% formaldehyde solution in phosphate buffered saline (PBS) (3.7% formaldehyde final concentration), and incubated 30 minutes at RT. Cells are washed 3× with PBS, followed by the addition of 100 μL of cold methanol and incubated for 30 minutes at −20° C. The methanol is removed and the cells are treated with PBS containing 0.1% TRITON® X-100(PBST), washed 3× with PBS, and incubated 15 minutes at RT.

[2] = test system: FGF receptor 1 (bFGF induced ERK phosphorylation in HUVEC); assay: AlphaScreen SureFire Detection of ERK phosphorylation (Thr202/Tyr204) in HUVEC; conditions: Homo sapiens, read-out: IC50 b-FGF induced ERK phosphorylation (Thr202/Tyr204)
Protocol: AlphaScreen SureFire Detection of ERK Phosphorylation (Thr202/Tyr204) in Human Umbilical Vein Endothelial Cells (HUVEC)
The effect of compound on the inhibition of FGF receptor 1 is measured by monitoring the phosphorylation of ERK (pERK) in response to basic-Fibroblast growth factor (b-FGF) stimulation in Human Umbilical Endothelial cells (HUVEC). […] This is a homogeneous assay format utilizing the immuno-sandwich capture of the phosphorylated analyte followed by detection using antibody-coated ALPHASCREEN® beads (Perkin Elmer) to generate an amplified signal.
For the assay, cells are harvested by standard procedures and then counted. […] Plates are incubated overnight at 37° C., 5% CO2.
On the day of the assay, cells are serum starved in 100 μL EBM (endothelial cell basal) medium containing 1.5% FBS and 20 mg/mL BSA for 3 hours at 37° C., 5% CO2, then treated with 20 μM of 3× serially diluted compound in starvation medium for 1 hour at 37° C. This yielded a 10 point concentration-response curve ranging from 10-0.005 μM in 1% DMSO. After 1 hour compound treatment, cells are stimulated with 50 μL b-FGF (Sigma, F0291, final b-FGF concentration 50 ng/mL) at 37° C. for 15 minutes. In the wells containing cells and 50 μL stimulator b-FGF yields MAX signal, and cells with 10 μM positive control compound and 50 μL stimulator b-FGF as MIN. […]

C[C@@H](Oc1ccc2[nH]nc(/C=C/c3cnn(CCO)c3)c2c1)c1c(Cl)cncc1Cl [Preparation 10, (R)-(E)-2-(4-(2-(5-(1-(3,5-Dichloropyridin-4-yl)ethoxy)-1H-indazol-3-yl)vinyl)-1H-pyrazol-1-yl)ethanol]
IC50 [1]: 0.4 nM
IC50 [2]: 0.6 nM
